# Assay results from patent publication US11547697B2, “Heterocyclic compounds and uses thereof” (MILLENNIUM PHARMACEUTICALS, INC., priority 2009, dated 2023).
# How the values were obtained:
# Format in all cases: biochemical
# [1] = target: p110β/p85α (Homo sapiens (Human), UniProt P42338); assay: PI 3-Kinase (human) HTRF assay, p110β/p85α; conditions: in vitro; read-out: PI3K β IC50
# Method: An exemplary system is PI 3-Kinase (human) HTRF™ Assay from Upstate. […] Briefly, the assay is a time resolved FRET assay that indirectly measures PIP3 product formed by the activity of a PI3-K. The kinase reaction is performed in a microtitre plate (e.g., a 384 well microtitre plate). The total reaction volume is approximately 20 ul per well. In the first step, each well receives 2 ul of test compound in 20% dimethylsulphoxide resulting in a 2% DMSO final concentration. Next, approximately 14.5 ul of a kinase/PIP2 mixture (diluted in 1× reaction buffer) is added per well for a final concentration of 0.25-0.3 ug/ml kinase and 10 μM PIP2. The plate is sealed and incubated for 15 minutes at room temperature. To start the reaction, 3.5 ul of ATP (diluted in 1× reaction buffer) is added per well for a final concentration of 10 μM ATP. The plate is sealed and incubated for 1 hour at room temperature. The reaction is stopped by adding 5 ul of Stop Solution per well and then 5 ul of Detection Mix is added per well. The plate is sealed, incubated for 1 hour at room temperature, and then read on an appropriate plate reader. Data is analyzed and IC50s are generated using GraphPad Prism 5. […] For PI3K α, β, δ, and γ, the nM concentration of inhibitor to reach IC50 is provided.
# [2] = target: p110γ (Homo sapiens (Human), UniProt P48736); assay: PI 3-Kinase (human) HTRF assay, p110γ; conditions: in vitro; read-out: PI3K γ IC50
# p110γ, sequence (P48736 whole entry): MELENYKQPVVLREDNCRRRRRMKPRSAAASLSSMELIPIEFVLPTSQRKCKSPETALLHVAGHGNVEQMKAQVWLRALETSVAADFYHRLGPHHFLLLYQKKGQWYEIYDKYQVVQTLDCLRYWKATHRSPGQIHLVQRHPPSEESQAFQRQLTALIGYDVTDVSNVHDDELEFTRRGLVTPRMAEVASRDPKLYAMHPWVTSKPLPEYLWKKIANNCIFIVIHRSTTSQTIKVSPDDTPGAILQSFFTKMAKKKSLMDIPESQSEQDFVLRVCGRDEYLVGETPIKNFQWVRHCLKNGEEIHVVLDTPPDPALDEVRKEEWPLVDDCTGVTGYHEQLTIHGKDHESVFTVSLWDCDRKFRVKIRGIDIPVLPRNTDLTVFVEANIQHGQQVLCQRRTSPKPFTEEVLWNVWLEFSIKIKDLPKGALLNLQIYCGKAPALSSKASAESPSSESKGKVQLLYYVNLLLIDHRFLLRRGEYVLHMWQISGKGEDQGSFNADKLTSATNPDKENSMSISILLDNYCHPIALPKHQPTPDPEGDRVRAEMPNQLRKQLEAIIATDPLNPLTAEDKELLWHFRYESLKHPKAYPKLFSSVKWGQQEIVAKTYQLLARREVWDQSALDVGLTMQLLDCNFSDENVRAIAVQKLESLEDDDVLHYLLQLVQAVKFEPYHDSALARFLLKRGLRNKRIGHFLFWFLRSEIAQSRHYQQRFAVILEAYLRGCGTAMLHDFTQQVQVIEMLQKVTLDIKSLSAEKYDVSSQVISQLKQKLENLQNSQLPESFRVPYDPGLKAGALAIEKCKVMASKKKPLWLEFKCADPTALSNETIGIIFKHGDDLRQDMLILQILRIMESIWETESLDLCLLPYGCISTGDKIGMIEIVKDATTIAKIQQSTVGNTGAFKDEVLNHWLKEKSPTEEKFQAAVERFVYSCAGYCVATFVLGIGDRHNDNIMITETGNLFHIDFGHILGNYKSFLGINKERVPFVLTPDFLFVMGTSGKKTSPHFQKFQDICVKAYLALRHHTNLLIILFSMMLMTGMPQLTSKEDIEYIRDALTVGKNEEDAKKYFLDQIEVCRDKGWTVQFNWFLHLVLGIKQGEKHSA
# [3] = target: p110δ/p85α (Homo sapiens (Human), UniProt O00329); assay: PI 3-Kinase (human) HTRF assay, p110δ/p85α; conditions: in vitro; read-out: PI3K δ IC50
# p110δ/p85α, sequence (O00329 whole entry): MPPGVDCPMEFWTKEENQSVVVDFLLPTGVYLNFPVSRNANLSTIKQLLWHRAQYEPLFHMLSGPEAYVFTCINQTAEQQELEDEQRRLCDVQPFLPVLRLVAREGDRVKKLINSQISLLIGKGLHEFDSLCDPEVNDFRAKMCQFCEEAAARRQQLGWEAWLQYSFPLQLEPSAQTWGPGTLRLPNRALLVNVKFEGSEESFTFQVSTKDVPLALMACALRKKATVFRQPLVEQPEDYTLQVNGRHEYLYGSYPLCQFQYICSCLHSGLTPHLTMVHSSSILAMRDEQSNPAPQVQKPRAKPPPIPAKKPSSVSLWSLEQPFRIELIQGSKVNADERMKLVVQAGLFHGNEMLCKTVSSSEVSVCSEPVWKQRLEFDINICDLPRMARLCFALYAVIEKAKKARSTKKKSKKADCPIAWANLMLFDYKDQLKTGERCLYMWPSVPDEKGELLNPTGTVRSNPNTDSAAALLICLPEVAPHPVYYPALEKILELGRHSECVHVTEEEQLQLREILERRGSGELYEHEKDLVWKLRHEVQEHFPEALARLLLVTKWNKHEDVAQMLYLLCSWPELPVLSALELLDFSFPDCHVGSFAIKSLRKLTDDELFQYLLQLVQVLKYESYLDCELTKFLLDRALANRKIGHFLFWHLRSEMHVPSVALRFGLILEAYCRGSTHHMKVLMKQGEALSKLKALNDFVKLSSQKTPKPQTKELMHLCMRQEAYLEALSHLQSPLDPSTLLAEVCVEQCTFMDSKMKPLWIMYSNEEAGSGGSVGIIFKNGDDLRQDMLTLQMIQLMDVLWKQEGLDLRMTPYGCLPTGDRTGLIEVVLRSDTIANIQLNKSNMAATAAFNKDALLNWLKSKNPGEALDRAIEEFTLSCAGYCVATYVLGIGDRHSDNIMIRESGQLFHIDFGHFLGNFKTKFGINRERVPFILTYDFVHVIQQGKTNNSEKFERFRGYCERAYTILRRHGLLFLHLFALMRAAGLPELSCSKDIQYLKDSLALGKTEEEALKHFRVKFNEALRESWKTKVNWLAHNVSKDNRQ
# p110δ/p85α, sequence (P27986 whole entry partner): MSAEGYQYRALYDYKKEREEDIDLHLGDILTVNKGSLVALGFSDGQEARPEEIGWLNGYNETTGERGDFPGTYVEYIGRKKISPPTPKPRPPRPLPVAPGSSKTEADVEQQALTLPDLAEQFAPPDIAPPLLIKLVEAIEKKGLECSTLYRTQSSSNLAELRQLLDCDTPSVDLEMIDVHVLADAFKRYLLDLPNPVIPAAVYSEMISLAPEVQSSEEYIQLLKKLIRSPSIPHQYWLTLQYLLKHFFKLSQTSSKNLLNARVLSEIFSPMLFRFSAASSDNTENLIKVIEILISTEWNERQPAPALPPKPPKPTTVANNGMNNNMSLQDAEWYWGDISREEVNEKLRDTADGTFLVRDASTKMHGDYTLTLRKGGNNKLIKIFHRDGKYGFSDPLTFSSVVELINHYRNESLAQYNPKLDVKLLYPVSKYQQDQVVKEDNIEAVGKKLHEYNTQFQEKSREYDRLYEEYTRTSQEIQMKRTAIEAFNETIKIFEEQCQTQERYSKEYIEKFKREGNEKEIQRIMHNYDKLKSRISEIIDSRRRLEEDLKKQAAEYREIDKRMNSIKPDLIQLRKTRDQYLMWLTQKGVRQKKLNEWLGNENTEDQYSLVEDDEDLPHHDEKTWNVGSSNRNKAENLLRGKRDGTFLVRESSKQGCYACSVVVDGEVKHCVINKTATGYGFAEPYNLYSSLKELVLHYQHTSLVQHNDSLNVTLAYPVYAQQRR
# [4] = target: p110α/p85α (Homo sapiens (Human), UniProt P42336); assay: PI 3-Kinase (human) HTRF assay, p110α/p85α; conditions: in vitro; read-out: PI3K α IC50
# p110α/p85α, sequence (P42336 whole entry): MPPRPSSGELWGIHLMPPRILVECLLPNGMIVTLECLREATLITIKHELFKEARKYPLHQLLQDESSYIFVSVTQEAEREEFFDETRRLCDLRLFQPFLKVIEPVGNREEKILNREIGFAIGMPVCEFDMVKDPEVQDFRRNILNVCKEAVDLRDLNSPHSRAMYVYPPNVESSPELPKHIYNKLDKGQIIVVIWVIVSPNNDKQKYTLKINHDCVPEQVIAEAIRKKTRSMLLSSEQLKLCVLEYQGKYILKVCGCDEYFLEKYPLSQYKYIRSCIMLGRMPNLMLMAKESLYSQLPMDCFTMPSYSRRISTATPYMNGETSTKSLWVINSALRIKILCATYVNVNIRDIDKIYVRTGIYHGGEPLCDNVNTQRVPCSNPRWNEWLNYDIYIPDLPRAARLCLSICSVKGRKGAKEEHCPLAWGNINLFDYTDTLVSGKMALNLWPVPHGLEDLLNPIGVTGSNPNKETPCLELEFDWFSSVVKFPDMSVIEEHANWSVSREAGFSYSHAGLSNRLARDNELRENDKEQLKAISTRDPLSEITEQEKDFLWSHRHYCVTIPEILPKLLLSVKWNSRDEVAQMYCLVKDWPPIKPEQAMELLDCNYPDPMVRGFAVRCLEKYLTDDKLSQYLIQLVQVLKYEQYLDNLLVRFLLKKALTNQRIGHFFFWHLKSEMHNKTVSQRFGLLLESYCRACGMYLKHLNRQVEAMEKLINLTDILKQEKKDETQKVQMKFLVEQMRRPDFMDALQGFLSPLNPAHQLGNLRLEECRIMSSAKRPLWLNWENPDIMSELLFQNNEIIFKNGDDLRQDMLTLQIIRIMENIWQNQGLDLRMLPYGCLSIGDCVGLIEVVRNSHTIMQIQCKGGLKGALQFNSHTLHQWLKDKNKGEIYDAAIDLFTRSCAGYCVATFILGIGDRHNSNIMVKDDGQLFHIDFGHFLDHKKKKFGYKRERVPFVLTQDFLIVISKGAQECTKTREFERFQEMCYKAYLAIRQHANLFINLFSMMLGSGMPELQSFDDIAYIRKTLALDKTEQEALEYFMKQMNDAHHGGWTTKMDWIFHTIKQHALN
# p110α/p85α, sequence (P27986 whole entry partner): as the sequence (P27986 whole entry partner) above
# p110β/p85α, sequence (P42338 whole entry): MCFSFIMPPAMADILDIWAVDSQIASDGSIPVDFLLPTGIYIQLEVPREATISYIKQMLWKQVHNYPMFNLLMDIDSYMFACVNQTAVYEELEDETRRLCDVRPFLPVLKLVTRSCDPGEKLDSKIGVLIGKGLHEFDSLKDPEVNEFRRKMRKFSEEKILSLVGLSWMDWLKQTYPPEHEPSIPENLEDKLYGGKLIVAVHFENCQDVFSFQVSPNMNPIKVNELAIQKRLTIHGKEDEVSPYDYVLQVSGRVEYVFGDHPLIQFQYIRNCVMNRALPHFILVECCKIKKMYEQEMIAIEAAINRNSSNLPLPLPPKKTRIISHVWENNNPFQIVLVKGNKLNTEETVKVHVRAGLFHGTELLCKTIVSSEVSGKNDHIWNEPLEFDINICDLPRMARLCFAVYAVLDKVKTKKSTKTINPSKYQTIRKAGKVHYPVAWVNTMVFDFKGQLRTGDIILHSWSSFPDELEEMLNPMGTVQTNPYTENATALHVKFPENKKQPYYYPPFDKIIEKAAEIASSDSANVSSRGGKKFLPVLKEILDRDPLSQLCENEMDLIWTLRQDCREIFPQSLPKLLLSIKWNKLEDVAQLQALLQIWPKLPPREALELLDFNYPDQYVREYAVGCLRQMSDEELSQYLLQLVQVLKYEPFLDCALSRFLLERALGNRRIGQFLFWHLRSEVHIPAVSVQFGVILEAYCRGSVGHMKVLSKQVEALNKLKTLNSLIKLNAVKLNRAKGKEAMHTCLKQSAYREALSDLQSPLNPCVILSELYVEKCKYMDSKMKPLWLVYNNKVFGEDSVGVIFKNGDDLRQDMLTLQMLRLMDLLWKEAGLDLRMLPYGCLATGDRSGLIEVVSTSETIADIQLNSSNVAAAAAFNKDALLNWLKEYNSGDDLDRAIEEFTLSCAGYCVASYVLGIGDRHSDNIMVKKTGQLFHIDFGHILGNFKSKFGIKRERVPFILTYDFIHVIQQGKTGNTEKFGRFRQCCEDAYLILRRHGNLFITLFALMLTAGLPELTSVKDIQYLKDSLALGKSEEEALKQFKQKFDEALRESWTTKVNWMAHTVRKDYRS
# p110β/p85α, sequence (P27986 whole entry partner): as the sequence (P27986 whole entry partner) above
SMILES,IC50 [1] [nM],IC50 [2] [nM],IC50 [3] [nM],IC50 [4] [nM]
CS(=O)(=O)CCN1CCC(NC(=O)c2cnc3ccc(-c4ccc5oc(N)nc5c4)cn23)CC1 [compound 199],< 10000,< 100,< 100,< 100
CN1CCC(NC(=O)c2cnc3ccc(-c4ccc5oc(N)nc5c4)nn23)CC1 [compound 203],< 100,< 100,< 1000,< 100
CNC(=O)C1CN(c2cnc3ccc(-c4ccc5oc(N)nc5c4)cc3n2)C1 [compound 214],< 100,< 1000,< 10000,< 100
Nc1nc2cc(-c3ccc4ncc(N5CC(C(=O)NC6CC6)C5)nc4c3)ccc2o1 [compound 215],< 1000,< 1000,< 10000,< 100
Nc1nc2cc(-c3ccc4ncc(N5CC(O)C5)nc4c3)ccc2o1 [compound 216],< 1000,< 100,< 10000,< 100
CN(C)CC(=O)N1CCN(c2cnc3ccc(-c4ccc5oc(N)nc5c4)cc3n2)CC1 [compound 217],< 1000,< 1000,< 1000,< 100
CCN(CC)CCNc1cnc2ccc(-c3ccc4oc(N)nc4c3)cc2n1 [compound 218],< 1000,< 10000,< 1000,< 1000
Nc1nc2cc(-c3ccc4ncc(NCCN5CCCC5)nc4c3)ccc2o1 [compound 219],< 1000,< 1000,< 1000,< 1000
CCN(CC)CCCNc1cnc2ccc(-c3ccc4oc(N)nc4c3)cc2n1 [compound 220],< 1000,< 1000,< 100,< 100
Nc1nc2cc(-c3ccc4ncc(NCCCN5CCCC5)nc4c3)ccc2o1 [compound 221],< 1000,< 100,< 100,< 100
Nc1nc2cc(-c3ccc4ncc(NCCCN5CCOCC5)nc4c3)ccc2o1 [compound 222],< 1000,< 1000,< 100,< 100
Nc1nc2cc(-c3ccc4ncc(N5CCN(C(=O)[C@H]6CCCN6)CC5)nc4c3)ccc2o1 [compound 225],< 100,< 100,< 100,< 100
CN1CCN(C2CCN(c3cnc4ccc(-c5ccc6oc(N)nc6c5)cc4n3)CC2)CC1 [compound 227],< 1000,< 10000,< 100,< 100
Nc1nc2ccc(-c3ccc4nnc(-c5ccncc5)n4c3)cc2o1 [compound 230],< 1000,< 1000,< 10000,< 10000
COc1nc(-c2ccc3oc(N)nc3c2)cnc1N [compound 238],< 1000,< 1000,< 10000,< 1000
CC(Oc1nc(-c2ccc3oc(N)nc3c2)cnc1N)C(F)(F)F (stereo not shown) [compound 239],< 1000,< 10000,< 10000,< 10000
Nc1nc2ccc(-c3ccc4sc(N)nc4c3)cc2o1 [compound 249],< 100,< 100,< 1000,< 100
CC(=O)Nc1nc2cc(-c3ccc4nc(N)oc4c3)ccc2s1 [compound 251],< 100,< 100,< 100,< 100
Nc1nc2cc(-c3ccc4ncn(CCN5CCCC5)c(=O)c4c3)ccc2o1 [compound 255],< 10000,< 10000,< 10000,< 10000
CCN(CC)CCNC(=O)c1cnc2ccc(-c3ccc4oc(N)nc4c3)cn12 [compound 295],< 1000,< 1000,< 1000,< 1000
CCN(CC)CCCNC(=O)c1cnc2ccc(-c3ccc4oc(N)nc4c3)cn12 [compound 302],< 10000,< 10000,< 100,< 1000
CN1CCN(CCNC(=O)c2cnc3ccc(-c4ccc5oc(N)nc5c4)cn23)CC1 [compound 306],< 1000,< 1000,< 1000,< 100
CC(=O)Nc1nc(C)c(-c2ccc3oc(N)nc3c2)s1 [compound 312],< 10000,< 100,< 1000,< 1000
Nc1nc2cc(-c3ccc4ncc(N5CC(N6CCCC6)C5)nc4c3)ccc2o1 [compound 314],< 10000,< 10000,< 10000,< 1000
Nc1nc2cc(-c3ccc4ncc(N5CC(n6ccnc6)C5)nc4c3)ccc2o1 [compound 319],< 1000,< 1000,< 10000,< 100
